# Experiments:
# [1] = test system: OT-1 CTL cells; test: Secretion of CTL effector molecules on co-culture with EG7-PD-L1 target cells (flow cytometry); assay type: cell-based, mouse; conditions: CTL : EG7-PD-L1 1:1, GolgiPlug 6 hours; FIG. 3
# Protocol: (1) Preparation of CTL cells: The spleens of OT1 mice were obtained, ground and added with red blood cell lysate, to prepare single-cell suspension. The culture medium was 1640+10% FBS+50 μM βME+10 nM IL-2. Cell density was adjusted to about 2-4 million/mL. The cells were added with 10 nM OVA257-264, and cultured in a cell incubator at 37° C., 5% CO2. From the day of CTL preparation, cells were stained with FITC-labeled PD-1 antibody every day, and the changes of PD-1 expression on the cell surfaces were detected by flow cytometry.
# (3) CTL cells and target cells EG7 (EL4 lymphoma cells expressing chicken ovalbumin) were mixed and cultured at a concentration of 1:1. The cell mixture was treated with 1 μM protein transport inhibitor GolgiPlug™ for 6 hours, and then fixed by 4% paraformaldehyde. The cells were then treated with 0.1% saponin, and stained with antibodies against each effector molecule. The effect of MTC on the secretion of CTL effector molecules was detected by flow cytometry.
# [2] = test system: EGFR-L858R mutant orthotopic tumors; test: EGFR-L858R transgenic mouse orthotopic lung cancer model (CT); assay type: in vivo; conditions: FIG. 6B
# From the text: The advantages of xenograft models are that the antigenic epitopes recognized by T cells are very clear, and the system is pure for elucidation. The disadvantage is that this model cannot simulate the complex carcinogenesis, tumorigenesis, and interactions of tumor and stromal cells of the primary cancer. Therefore, murine xenograft models are less predictive of drug effects in human patients. Therefore, in this example, the effect of the MTC of the present invention in treating tumors was further investigated by using a transgenic lung cancer mouse model. […] One to two months later, lung cancer in mice could be detected and recorded by computed tomography (CT). […]
# (2) The size and severity of the tumors was recorded by computed tomography (CT).
# (3) The tumor-bearing mice were randomly divided into groups and given placebo (HKI solution) and MTC (40 mg/kg/day in HKI solution). After 2 weeks of treatment, tumor sizes were recorded by CT again.
# Mice were intraperitoneally injected with CD8 antibody […] one week in advance to deplete CD8+ cells in the tumor-bearing mice. The mice were then co-treated with MTC and CD8 antibody for 2 weeks, and the tumor size was recorded by CT.
# [3] = test system: EL4-OVA-mPDL1 cells; test: EL4-OVA-mPDL1 subcutaneous transplanted tumor in Rag1−/− mice given CTL cells; assay type: in vivo, mouse
# Protocol: (1) Lymphoma cells overexpressing chicken ovalbumin OVA and mouse PD-L1, namely EL4-OVA-mPDL1 cells, were resuspended in BD Matrigel, in which, for one side of one mouse, 2×10^6 cells were resuspended in 100 μl BD Matrigel.
# (2) The mixture of cells and Matrigel was inoculated into the left and right flanks of Rag1−/− mice subcutaneously, each at a dosage of 100 μl.
# (3) When the tumor was fixed about 5 days after inoculation, activated OT-1 T cells (i.e., 2×10^6 CTL cells/mouse) were injected through the tail vein, and the mice were divided into 3 groups, namely the CTL cell group, the CTL cell +10 mg/kg/2 days PD-1 antibody group, and the CTL cell +40 mg/kg/day MTC group.
# (4) The length and width of the transplanted tumor of each group of mice were measured from the day of tail vein injection of CTL cells, and every other day, and the tumor volume was calculated as length×width^2/2 (FIG. 5A).
# [4] = test system: Jurkat-PD-1-NFAT-LUC cells; test: IL-2 secretion by Jurkat-PD-1-NFAT-LUC cells co-cultured with Raji-PD-L1 cells (ELISA); assay type: cell-based, human; conditions: 6 hours, FIG. 1D
# Protocol: (§1) (1) Jurkat cells were used to construct a stable cell line expressing PD-1. The pCAGin-PD-1 plasmid was electroporated into Jurkat cells, which were then screened with 900 μg/mL G418 antibiotic and flow-sorted for single clones. Jurkat-PD-1 cells were then electroporated into a DNA fragment that controls the luciferase gene through the NFAT-binding site (referred to as NFAT-LUC). A single clone was then flow-sorted and named clone 5. Using this cell, the expression level of IL-2 can be measured by the activity of luciferase. Raji cells stably expressing PD-L1 were constructed, and the pCDNA-PD-L1 plasmid was electroporated into the Raji cells, followed by screening with 2 μg/mL puromycin, and then flow-sorted single clones and named clone 1.
# (3) A 96-well plate was coated with 10 μg/mL CD3 antibody/10 μg/mL CD28 antibody overnight at 4° C. and excess antibody was washed off with PBS. Raji cells or Raji-PD-L1 cells were co-cultured with Jurkat-PD-1-NFAT-LUC cells at a ratio of 1:1, or to a mixture of Raji-PD-L1 cells and Jurkat-PD-1-NFAT-LUC cells at a ratio of 1:1 was added 1 μM MTC or 10 μg/mL PD1 antibody for co-culture; after 6 hours of co-culture, the secretion of IL-2 in the supernatant was measured by ELISA.
# [5] = test system: Jurkat-PD-1-NFAT-LUC cells; test: NFAT-luciferase activity in Jurkat-PD-1-NFAT-LUC cells co-cultured with Raji-PD-L1 cells; assay type: cell-based, human; conditions: 4.86 μM MTC or LMT added with Raji-PD-L1 cells, 6 h co-culture; FIG. 1E
# Protocol: as §1
# (4) A 96-well plate was coated with 10 μg/mL CD3 antibody/10 μg/mL CD28 antibody overnight at 4° C., and excess antibody then washed off with PBS. Raji cells or Raji-PD-L1 cells were co-cultured with Jurkat-PD-1-NFAT-LUC cells at a ratio of 1:1, or to a mixture of Raji-PD-L1 cells and Jurkat-PD-1-NFAT-LUC cells at a ratio of 1:1 was added 4.86 μM MTC or LMT. Luciferase substrate was added after 6h co-culture and the luciferase activity was measured by a microplate reader.
# [6] = test system: EG-7-PD-L1 cells; test: CTL killing of EG-7-PD-L1 target cells (PI staining, flow cytometry); assay type: cell-based, mouse; conditions: CTL : EG-7-PD-L1 5:1; 1 μM, 5 μM, 10 μM MTC, 4 hours; FIG. 4A
# Protocol: (1) The preparation of CTL cells was described in Example 2.
# (2) EG-7-PD-L1 cells were labeled with 5 nM CFSE. CTL cells and EG-7-PD-L1 were mixed at a ratio of 5:1, treated with 1 μM, 5 μM, and 10 μM MTC, respectively, for 4 hours, and then stained with 10 μg/mL PI. The apoptosis of target cells EG-7-PD-L1 was detected by flow cytometry, and then the killing ability of CTL cells to target cells was assessed.
compound,measurement,setting,value
"CN(C)c1ccc2nc3ccc(N(C)C)cc3[s+]c2c1 [MTC, 3,7-bis(dimethylamino)-phenothiazine-5-ium chloride]",secretion of Granzyme B in CTL cells,[1],increased sharply
same,secretion of IFNγ in CTL cells,[1],increased sharply
same,secretion of IL-2 in CTL cells,[1],increased sharply
same,secretion of perforin in CTL cells,[1],increased sharply
same,tumor growth in the case of CD8+ T cell depletion,"[2]; CD8 antibody one week in advance, then MTC and CD8 antibody for 2 weeks",not inhibited
same,tumors by CT imaging,"[2]; MTC 40 mg/kg/day in HKI solution, 14 days",basically cleared
same,tumor growth (tumor volume and tumor weight),"[3]; CTL cells by tail vein, MTC 40 mg/kg/day intragastric, PD-1 antibody 10 mg/kg/2 days intraperitoneal, vs CTL cell-only group, FIGS. 5B, C, D",strongly inhibited tumor growth
same,therapeutic effect of CTL+MTC compared with CTL+PD-1 antibody treatment group,[3]; MTC 40 mg/kg/day vs PD-1 antibody 10 mg/kg/2 days,better therapeutic effect
same,"function of Jurkat cells inhibited by PD-1, compared with the PD-1 antibody group",[4]; 1 μM MTC vs 10 μg/mL PD1 antibody,significantly improved
same,secretion of IL-2 in the supernatant,"[4]; Raji-PD-L1 : Jurkat-PD-1-NFAT-LUC 1:1, CD3/CD28 antibody coated plate, 1 μM MTC or 10 μg/mL PD1 antibody",sharply enhanced
same,luciferase activity,[5],increased dramatically
same,killing ability of CTL cells against EG-7-PD-L1,[6],significantly restored

# Source: patent US20220323454A1, “PHENOTHIAZINES AND THEIR DERIVATIVES FOR USE AS A MEDICAMENT” (Guangzhou Virotech Pharmaceutical Co., Ltd., priority 2019, published 2022)
